≈ marks a conversion by molar mass, not a printed value.

As usually defined, the kinetic solubility is solubility judged after dilution from a stock solution rather than from solid.

For the data set the following is noted: buffer; pH 7.4; 200.0 µM.
As for `Br.Cc1ccnc(Nc2nc(-c3ccccc3)cs2)c1`, the kinetic solubility turned out to be 0.4 µg/mL.

The molecule `Cc1ccnc(SCC(=O)Nc2sccc2C#N)n1` had a kinetic solubility of 13.2 µg/mL (≈ 45.5 µM). The same measure for `Cc1cccc(NC(=O)NCCN2CCCCC2)c1`: above 39.2 µg/mL.

For `Cc1ccc(C)c(C(=O)CN2Cc3ccccc3C2=O)c1`, the solubility (kinetic) came out at 6.1 µg/mL (≈ 21.8 µM).

`CCC(=O)c1ccc(OCC(=O)N2CCCC2)c(OC)c1` had a kinetic solubility above 43.7 µg/mL. The same measure for `O=C(c1ccccc1)C1CN(Cc2ccccc2)CCC1(O)c1ccccc1` (stereo not given): 10.4 µg/mL (≈ 28 µM); for `CN(C(=O)COc1ncnc2ccccc12)C1CCCCC1`: 39 µg/mL (≈ 130 µM).

Turning to `CC1(C)CC(NC2C3CC4CC(C3)CC2C4)CC(C)(C)N1.Cl` (stereo not given), the kinetic solubility was above 54.5 µg/mL. The same measure for `O=S(=O)(c1ccc(-c2ccno2)s1)N1CCCCC1`: 8.1 µg/mL (≈ 27.1 µM). In turn, `Cc1ccc(NC(=O)Nc2cccc(C)n2)cc1` gave a kinetic solubility of 0.8 µg/mL (≈ 3.32 µM). Against the preceding molecule, the solubility kinetic is about 10-fold lower. The figure for `O=C1COCC(=O)N1CCc1c[nH]c2ccccc12` is above 38.7 µg/mL; for `CCOc1c(N2CC(C)OC(C)C2)c(=O)c1=O` (stereo not given) it is above 35.9 µg/mL; for `O=C(O)c1ccc2[nH]c3c(c2c1)CCCC3` it is above 32.3 µg/mL.

In turn, `COc1ccc(C(=O)C2CCCN(Cc3cccc(C)n3)C2)c(OC)c1` (stereo not given) yielded a kinetic solubility above 53.2 µg/mL.

As to `Cc1ccc(CNc2nc(C)cs2)cc1`, the solubility (kinetic) is 25.3 µg/mL (≈ 116 µM). The same measure for `O=C(c1ccc(F)cc1)C1CCN(C(=O)c2ccc(F)cc2)CC1`: above 49.4 µg/mL; for `N#Cc1cccc(NC(=O)c2cncn2-c2ccccc2)c1`: 41.8 µg/mL (≈ 145 µM); for `Cc1csc(NC(=O)c2ccc3ccccc3n2)n1`: 4 µg/mL (≈ 14.9 µM). The figure for `CSc1nsc(SC)c1C(=O)Nc1ccc(C(C)(C)C)cc1` is below 0.4 µg/mL. In the case of `CC(=O)N1C(=O)NC(c2ccccc2)=C([N+](=O)[O-])C1c1ccccc1` (stereo not given), the solubility (kinetic) turned out to be 43.2 µg/mL (≈ 128 µM). The figure for `O=C(OCc1cnc(Cl)s1)c1c(F)cccc1F` is 21.5 µg/mL (≈ 74.2 µM); for `Cc1cc(NC(=O)Cn2cnc3sccc3c2=O)no1` it is 7.8 µg/mL (≈ 26.9 µM). In turn, `CCOc1ncccc1C(=O)Nc1cc2c(cc1Br)OCCO2` displayed a kinetic solubility of 6.5 µg/mL (≈ 17.1 µM). The figure for `CN1CCN(C(=O)CCC(=O)NCc2ccc(F)cc2)CC1` is 45.7 µg/mL (≈ 149 µM); for `CC(=O)c1csc(Nc2ccccc2Cl)n1` it is 32.8 µg/mL (≈ 130 µM). The same measure for `O=C(Nc1cccc(Cl)c1)N1C[C@H]2C[C@@H](C1)c1cccc(=O)n1C2`: above 51.6 µg/mL. `NC(=O)c1ccc(NC(=O)COc2cccc3ccccc23)cc1` showed a solubility (kinetic) of 1.1 µg/mL (≈ 3.43 µM).

Molecule `Cc1cc(C(=O)N2CCN(c3ncccc3C#N)CC2)no1` displayed a kinetic solubility of 43.7 µg/mL (≈ 147 µM). The same measure for `CC1CC(C)CN(C(=O)CSc2ncnc3sccc23)C1` (stereo not given): 17.1 µg/mL (≈ 53.2 µM); for `CCCCN(C(=O)COC(=O)c1ccc(C)s1)c1c(N)n(CCC)c(=O)[nH]c1=O`: 17.9 µg/mL (≈ 42.4 µM). Consider `CN1C(=O)[C@H](Cc2ccc([N+](=O)[O-])cc2)NC1=S`, for which the solubility (kinetic) was found to be 28.1 µg/mL (≈ 106 µM).

Regarding `Cc1ccc(NS(=O)(=O)c2c(C)noc2C)cc1`, the kinetic solubility is above 39.9 µg/mL.

`Cn1c(N)c(C(=O)COC(=O)Cc2ccc(Cl)c(Cl)c2)c(=O)n(C)c1=O`: the kinetic solubility stood at 25.7 µg/mL (≈ 64.2 µM). The same measure for `CC12CC3(C)CC(C)(C1)CC(C(=O)NCc1ccccn1)(C2)C3`: 42.4 µg/mL (≈ 136 µM); for `COc1ccc(C(=O)N[C@H](C(=O)NC2CCCCC2)C(C)C)cc1`: 5.1 µg/mL (≈ 15.3 µM).

As for `COc1ccc(C(=O)NC(C)CCc2ccccc2)c(O)c1` (stereo not given), the kinetic solubility was 15.2 µg/mL (≈ 50.8 µM). `Cc1ccc(NC(CC(=O)c2ccccc2)C(=O)O)cc1Cl` (stereo not given) gave a solubility (kinetic) of 10.2 µg/mL (≈ 32.1 µM). This solubility kinetic and that of the molecule before are within 1.5-fold of each other.

Take `COc1ccc(C)cc1S(=O)(=O)Nc1ccc2c(c1)OCCO2`: the solubility (kinetic) came to 4.1 µg/mL (≈ 12.2 µM). Compared with the last molecule, the solubility kinetic is about 2.5-fold lower. The same measure for `Cc1ccc(NC(=O)CN(C)C(=S)NC2CC2)cc1`: above 41.6 µg/mL. As to `CC(C)(C)C(=O)N(Cc1ccc(Cl)cc1)Cc1cccnc1`, the kinetic solubility stood at 42.6 µg/mL (≈ 134 µM).

`COc1ccc(S(=O)(=O)Nc2cccnc2)cc1OC` yielded a solubility (kinetic) above 44.1 µg/mL. The figure for `S=c1[nH]c2cnccc2n1Cc1ccccc1` is 5.7 µg/mL (≈ 23.6 µM). For the molecule `O=C(COC(=O)c1ccccc1)Nc1ccc2[nH]c(=O)[nH]c2c1`, the solubility (kinetic) came out at 7.2 µg/mL (≈ 23.1 µM). The same measure for `CCCCn1c(CCNC(=O)c2ccco2)nc2ccccc21`: above 46.7 µg/mL; for `O=C(O)CCCc1c(-[n+]2ccccc2)[nH]c2ccccc12.[Cl-]`: above 47.5 µg/mL.

On to `O=C(COC(=O)Cc1c(F)cccc1Cl)NC(=O)Nc1ccccc1F`, for which the solubility (kinetic) turned out to be 1.9 µg/mL (≈ 4.96 µM).

As to `CCC/C(O)=C1\C(=O)CC(C)(C)CC1=Nc1ccc(OC)cc1`, the kinetic solubility was 41.6 µg/mL (≈ 132 µM). Against the preceding molecule, the solubility kinetic is about 22-fold higher.

As for `Cc1cc(C(=O)CCC(=O)N2CCN(c3ccccc3)CC2)c(C)s1`, the kinetic solubility is 46.5 µg/mL (≈ 130 µM). As to `O=C(NC1CCN(C(=O)Nc2ccc(F)cc2)CC1)c1ccc(F)cc1`, the kinetic solubility was 3.7 µg/mL (≈ 10.3 µM).

The molecule `CC1CCCN(C(=O)COC(=O)Cn2cnc3ccccc32)C1` (stereo not given) returned a solubility (kinetic) above 47.3 µg/mL.

`C=CCN1CN(CCc2ccccc2)CNC1=S`: the kinetic solubility is above 39.2 µg/mL. As for `COc1cc(CN2CCSCC2)c([N+](=O)[O-])cc1OC`, the solubility (kinetic) worked out at 35.2 µg/mL (≈ 118 µM). Regarding `CC1CCN(c2nc3c(cc2C#N)COC(C)(C)C3)CC1`, the solubility (kinetic) stood at 16 µg/mL (≈ 56.1 µM). The same measure for `N#Cc1ccc(-c2ccc(OCC3CNC(=O)O3)cc2)cc1` (stereo not given): 11.3 µg/mL (≈ 38.4 µM).

Take `COc1ccc(NC(=S)NC2CCCCC2)c(OC)c1`: the kinetic solubility was above 44.2 µg/mL. In turn, `N#C/C(=C\c1cccc(Oc2ccccc2)c1)C(=O)N1CCOCC1` returned a solubility (kinetic) of 42.5 µg/mL (≈ 127 µM). The molecule `CCC1CN(C(=O)Nc2cccc(C)c2)c2cc(C)ccc2O1` (stereo not given) yielded a solubility (kinetic) of 7.5 µg/mL (≈ 24.2 µM). With `Cc1ccc2c(c1)sc(C)[n+]2CCCS(=O)(=O)[O-]`, the solubility (kinetic) was above 42.8 µg/mL. The same measure for `C=CCN1C(=O)C2(OCCO2)c2cc(C)ccc21`: above 36.8 µg/mL; for `O=C(CCl)NCc1cc(-c2ccc(Cl)cc2)no1`: 13.2 µg/mL (≈ 46.3 µM); for `COc1ccc(C(=O)n2cnc3ccccc32)cc1[N+](=O)[O-]`: 29.4 µg/mL (≈ 98.9 µM). The same measure for `C/C(N)=C(/C#N)C(=O)COC(=O)c1ccc(OCC2CCCO2)cc1` (stereo not given): 51.5 µg/mL (≈ 150 µM); for `Cn1cc(C(=O)C(=O)N2CCCC2)c2ccccc21`: above 38.4 µg/mL; for `CC(=O)Nc1ccc(Sc2ccccc2C(=O)O)c(C(=O)O)c1`: 42.3 µg/mL (≈ 128 µM). Take `CNC(=S)NC1CC2CCCC(C1)N2Cc1ccc(C)cc1` (stereo not given): the solubility (kinetic) worked out at 45.9 µg/mL (≈ 145 µM). As for `O=C(CN1C(=O)c2ccccc2S1(=O)=O)c1ccc(F)c(F)c1`, the solubility (kinetic) worked out at 48.2 µg/mL (≈ 143 µM). On to `CC1CCC(NC(=O)CC(NC(N)=O)c2ccccc2Cl)CC1` (stereo not given), for which the solubility (kinetic) came to 46.6 µg/mL (≈ 138 µM). In the case of `NC(=O)c1cc(S(=O)(=O)N2CCOCC2)cs1`, the solubility (kinetic) is above 41.4 µg/mL.

`O=C(NC1CCCC1)C1CCN(C(=O)c2cccc(Cl)c2)CC1` displayed a kinetic solubility above 50.2 µg/mL. Turning to `COc1ccccc1NS(=O)(=O)c1ccc(C(=O)N2CCCCCC2)cc1`, the kinetic solubility is above 58.3 µg/mL. The figure for `Cl.O=C(CCN1CCOCC1)NCc1ccccc1` is above 42.7 µg/mL. In turn, `Cc1cc(Cl)ccc1NC(=S)NC(C)(C)C` returned a solubility (kinetic) of 28.3 µg/mL (≈ 110 µM). The same measure for `CN1C(C)(C)CC(NC(=O)c2ccco2)CC1(C)C`: above 39.7 µg/mL. The figure for `O=C(Nc1ccc(F)cc1F)c1ccc2c(c1)OCCO2` is 14 µg/mL (≈ 48.1 µM); for `O=C(Cc1ccc(Cl)cc1)N1CCN(c2ccccc2)CC1` it is 44.5 µg/mL (≈ 141 µM).

(Values after PubChem BioAssay AID1996.)
